Source: US9757355B2, “Oral dosage forms of cyclopropanecarboxylic acid {2-[(1S)-1-(3-ethoxy-4-methoxy-phenyl)-2-methanesulfonyl-ethyl]-3-oxo-2,3-dihydro-1H-isoindol-4-yl}-amide” (Celgene Corporation, priority 2011, dated 2017)
Converted amounts (≈) assume the structure as drawn.

Experiments:
[1] = molecular target: Phosphodiesterase 4 enzyme; assay: Inhibition of PDE4; format: biochemical; details: PDE4 purified from U937 human monocytic cells; 1 μM cAMP, 45 min at 30° C.
Protocol: Phosphodiesterase 4 enzyme was purified from U937 human monocytic cells by gel filtration chromatography, and phosphodiesterase reactions were carried out as previously described. See, e.g., Muller et al., Bioorg. Med. Chem. Lett., 1998, 8(19): 2669-2674. Briefly, reactions were carried out in 96-well deep-well plates in 50 mM Tris HCl pH 7.5, 5 mM MgCl2, 1 μM cyclic adenosine monophosphate (cAMP), plus 10 nM [^3H]-cAMP for 45 min at 30° C. The reactions were terminated by boiling, treated with 1 mg/ml snake venom, and separated using AG-1X8 ion exchange resin (BioRad). Reactions consumed less than 15% of available substrate.

TNF-α = assay: In vivo LPS-induced TNF-α production assay; details: Rattus norvegicus, 1.5 h; p.o.; male CD rats, 0.05 mg/kg LPS, blood 90 minutes after LPS challenge; read-out: ED50, TNF-α levels in rat plasma
Protocol: Male CD rats procured from Charles River Laboratories at seven weeks of age are allowed to acclimate for one week prior to use. A lateral tail vein is cannulated percutaneously with a 22-gage over-the-needle catheter under brief isoflurane anesthesia. Rats are administered a PDE4 inhibitor of the invention either by intravenous injection via the tail vein catheter or oral gavage 15 to 180 min prior to injection of 0.05 mg/kg LPS (E. Coli 055:B5). Catheters are flushed with 2.5 mL/kg of normal injectable saline. Blood is collected via cardiac puncture 90 minutes after LPS challenge. Plasma is prepared using lithium heparin separation tubes and frozen at −80° C. until analyzed. TNF-α levels are determined using a rat specific TNF-α ELISA kit (Busywork). The ED50 values are calculated as the dose of the PDE4 inhibitor of the invention at which the TNF-α production is reduced to 50% of the control value.

Aqueous solubility = format: physicochemical; details: water (aqueous)
Protocol: Thus, there exists a need for alternative formulations of Compound A in order to increase the bioavailability of the drug upon oral administration. Provided herein are oral dosage forms addressing this need.
The above method results in a physically stable solid dispersion of Compound A having an aqueous solubility of about 2 μg/mL.

- IC50 [1]: 105 nM
- solubility (Aqueous solubility): ~2 µg/mL (≈ 4.23 µM)
SMILES: CCOc1cc([C@@H](CS(C)(=O)=O)N2Cc3cccc(NC(=O)C4CC4)c3C2=O)ccc1OC [Compound A, Cyclopropanecarboxylic acid {2-[(1S)-1-(3-ethoxy-4-methoxy-phenyl)-2-methanesulfonyl-ethyl]-3-oxo-2,3-dihydro-1H-isoindol-4-yl}-amide]
- ED50 (TNF-α): ~7.8 µg/kg
